Reference: PMC7730458, “Rational Computational Design of Fourth-Generation EGFR Inhibitors to Combat Drug-Resistant Non-Small Cell Lung Cancer” (International Journal of Molecular Sciences, 2020)
Where two headings read alike, the source gives them in different places.

Columns and labels:
[1] = target: T1, d746-750/T790M/C797S mutant EGFR (Homo sapiens, UniProt P00533, C797S/DEL746-750/T790M); experiment: radiometric ([γ-33P]-ATP) kinase assay, triple mutant EGFR; assay type: biochemical; details: for Selectivity: wild type IC50 over triple mutant IC50; for Selectivity Index (IC50^WT/IC50^mutant): ratio of IC50 for the wild type to that for the triple mutant
T1 construct: purchased Reaction Biology Corp. (Malvern, PA, USA)
T1 sequence (P00533 with tags, fused parts or gaps DEL746-750/T790M/C797S): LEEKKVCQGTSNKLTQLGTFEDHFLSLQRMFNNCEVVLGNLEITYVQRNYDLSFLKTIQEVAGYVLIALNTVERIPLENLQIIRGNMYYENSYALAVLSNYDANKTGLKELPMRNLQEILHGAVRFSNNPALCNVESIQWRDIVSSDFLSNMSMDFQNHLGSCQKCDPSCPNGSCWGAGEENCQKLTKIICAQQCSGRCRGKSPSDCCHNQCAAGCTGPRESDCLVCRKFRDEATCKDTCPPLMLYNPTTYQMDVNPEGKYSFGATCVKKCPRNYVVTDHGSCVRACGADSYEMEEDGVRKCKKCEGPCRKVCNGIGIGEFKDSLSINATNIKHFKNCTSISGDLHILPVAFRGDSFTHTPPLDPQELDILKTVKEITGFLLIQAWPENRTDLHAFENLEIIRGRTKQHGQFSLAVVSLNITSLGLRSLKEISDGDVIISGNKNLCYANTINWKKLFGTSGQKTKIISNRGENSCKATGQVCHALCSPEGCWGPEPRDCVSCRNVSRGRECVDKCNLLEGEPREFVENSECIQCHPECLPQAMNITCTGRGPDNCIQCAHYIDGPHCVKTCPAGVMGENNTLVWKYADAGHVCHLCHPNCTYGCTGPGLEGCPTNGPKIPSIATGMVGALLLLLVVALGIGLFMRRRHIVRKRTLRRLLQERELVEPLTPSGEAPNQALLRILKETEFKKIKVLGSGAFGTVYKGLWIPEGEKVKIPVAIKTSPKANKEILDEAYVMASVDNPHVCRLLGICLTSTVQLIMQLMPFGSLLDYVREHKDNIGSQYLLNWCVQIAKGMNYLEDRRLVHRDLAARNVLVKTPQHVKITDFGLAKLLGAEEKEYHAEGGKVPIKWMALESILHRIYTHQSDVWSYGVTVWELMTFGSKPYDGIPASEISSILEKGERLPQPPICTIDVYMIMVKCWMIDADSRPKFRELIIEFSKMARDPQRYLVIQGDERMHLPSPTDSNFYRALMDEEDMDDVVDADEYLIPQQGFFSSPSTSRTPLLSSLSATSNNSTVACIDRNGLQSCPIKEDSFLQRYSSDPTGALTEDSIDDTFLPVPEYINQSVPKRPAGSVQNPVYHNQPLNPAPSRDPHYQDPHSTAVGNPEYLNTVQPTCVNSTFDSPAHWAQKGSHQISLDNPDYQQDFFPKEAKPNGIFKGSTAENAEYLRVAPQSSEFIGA
Protocol: (§1) This small number of virtual hits exemplifies the difficulty in discovering the fourth-generation inhibitors that are specific for the triple mutant. This can be understood in the context of the high structural similarity between the mutant and the wild type. All virtual hits were assessed for the presence of inhibitory activity against the d746-750/T790M/C797S mutant and the wild type via in vitro radiometric ([γ-^33P]-ATP) kinase assays (Reaction Biology Corp., Malvern, PA, USA). As a consequence of virtual and experimental screening, four molecules were identified as low-micromolar inhibitors of d746-750/T790M/C797S mutant. Actually, none of the four molecules have previously been reported as EGFR kinase inhibitors. With respect to disproving the possibility of acting as a false positive in enzyme inhibition assays, all four inhibitors were examined in the public ZINC database to confirm the lack of any substructure in pan assay interference compounds (PAINS).
(§2) The inhibitory activities of all compounds with respect to the wild type and the d746-750/T790M/C797S mutant of EGFR were measured by Reaction Biology Corp. (Malvern, PA, USA) using the radiometric kinase assays ([γ-^33P]-ATP). Briefly, the enzymatic reaction mixtures contained an artificial substrate peptide, poly-Glu-Tyr (4:1) in freshly prepared base reaction buffer (20 mM HEPES of pH 7.5, 10 mM MgCl2, 1 mM EGTA, 0.02% Brij-35, 0.02 mg/mL BSA, 0.1 mM Na3VO4, 2 mM DTT, 1% DMSO). Wild-type and mutant EGFR were delivered into the substrate solution and gently mixed. Each inhibitor in 100% DMSO in a serial dilution was then delivered to the reaction mixture using the acoustic dispensing system (Echo550; nanoliter range). To initiate the enzymatic reaction, ^33P-ATP with a specific activity of 10 μCi/μL was added into the reaction mixture, and the mixture was further incubated for 2 h at room temperature. Radioactivity was then monitored by the filter-binding method after reactions were spotted onto P81 ion exchange paper and the filters were washed extensively in 0.75% phosphoric acid. Kinase activity data were expressed as the percent remaining kinase activity in test samples compared to vehicle (dimethyl sulfoxide) reactions. IC50 values and curve fits were calculated with Prism Software (GraphPad Software) at 10 different concentrations. Staurosporine was employed as the positive control in this study.

[2] = target: T2, wild type EGFR (Homo sapiens, UniProt P00533); experiment: radiometric ([γ-33P]-ATP) kinase assay, wild-type EGFR; assay type: biochemical
T2 construct: purchased Reaction Biology Corp. (Malvern, PA, USA)
T2 sequence (P00533 25-1210): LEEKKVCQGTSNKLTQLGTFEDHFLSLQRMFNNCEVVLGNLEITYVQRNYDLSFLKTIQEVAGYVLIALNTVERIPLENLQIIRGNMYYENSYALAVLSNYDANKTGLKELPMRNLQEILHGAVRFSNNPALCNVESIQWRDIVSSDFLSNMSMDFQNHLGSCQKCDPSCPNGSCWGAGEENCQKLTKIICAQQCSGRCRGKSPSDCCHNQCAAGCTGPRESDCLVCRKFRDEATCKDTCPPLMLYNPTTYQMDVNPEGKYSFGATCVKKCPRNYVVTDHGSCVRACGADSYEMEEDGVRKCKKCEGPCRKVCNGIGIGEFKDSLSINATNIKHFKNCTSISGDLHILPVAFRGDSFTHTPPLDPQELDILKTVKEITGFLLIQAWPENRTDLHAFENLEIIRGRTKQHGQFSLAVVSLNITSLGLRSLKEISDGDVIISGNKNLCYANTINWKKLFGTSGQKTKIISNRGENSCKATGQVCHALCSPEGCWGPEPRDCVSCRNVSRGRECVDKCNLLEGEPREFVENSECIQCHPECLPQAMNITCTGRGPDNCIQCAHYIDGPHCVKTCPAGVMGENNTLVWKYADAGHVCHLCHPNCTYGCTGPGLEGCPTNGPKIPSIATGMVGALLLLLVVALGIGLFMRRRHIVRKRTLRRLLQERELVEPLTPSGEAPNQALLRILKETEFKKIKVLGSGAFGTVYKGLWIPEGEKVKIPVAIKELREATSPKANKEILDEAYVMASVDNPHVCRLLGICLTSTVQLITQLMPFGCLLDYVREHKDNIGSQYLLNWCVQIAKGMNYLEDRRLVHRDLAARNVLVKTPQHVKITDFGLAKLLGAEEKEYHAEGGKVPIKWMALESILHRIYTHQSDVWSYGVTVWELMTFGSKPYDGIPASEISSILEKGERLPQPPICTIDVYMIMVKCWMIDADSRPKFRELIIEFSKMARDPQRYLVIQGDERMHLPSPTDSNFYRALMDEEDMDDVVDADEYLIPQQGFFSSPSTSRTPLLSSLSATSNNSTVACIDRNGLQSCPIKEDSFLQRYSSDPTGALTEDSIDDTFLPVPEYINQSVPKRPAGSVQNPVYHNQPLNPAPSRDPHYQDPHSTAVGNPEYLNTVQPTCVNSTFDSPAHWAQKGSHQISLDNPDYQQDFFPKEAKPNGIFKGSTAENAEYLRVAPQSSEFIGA
Protocol: as §1, §2

[3] = tested on: Ba/F3 cell lines with the wild type EGFR; experiment: cell proliferation inhibition assay, Ba/F3 wild-type EGFR; details: Mus musculus, BaF3, 72 h, read-out: IC50 Ba/F3
Protocol: (§3) The cells were treated with various concentrations of the compounds in duplicate. After 72 h, the fluorescence signals were measured at an excitation wavelength of 540 nm and an emission wavelength of 590 nm using a microplate reader. More specifically, the number of living cells was determined with CellTiter-Glo® Luminescent Cell Viability Assay (Promega).

[4] = tested on: Ba/F3 cell lines with the d746-750/T790M/C797S mutant EGFR; experiment: cell proliferation inhibition assay, Ba/F3 triple mutant EGFR; details: for IC50: Mus musculus, BaF3, 72 h, read-out: IC50 Ba/F3^d746-750/T790M/C797S; for Selectivity: Table 4, Ba/F3 wild type IC50 over mutant IC50
Protocol: as §3

[5] = Table 2, derivatives of 1, mean ± SD of two experiments, read-out: IC50 EGFR^d746-750/T790M/C797S
[6] = Table 2, derivatives of 1, wild type, mean ± SD of two experiments, read-out: IC50 EGFR
[7] = Table 3, derivatives of 2, mean ± SD of two experiments, read-out: IC50 EGFR^d746-750/T790M/C797S
[8] = Table 3, derivatives of 2, wild type, mean ± SD of two experiments, read-out: IC50 EGFR
[9] = Table 1, mean ± standard deviations of two experiments, read-out: IC50 d746-750/T790M/C797S
[10] = Table 1, mean ± standard deviations of two experiments, read-out: IC50 Wild Type

Row | SMILES | IC50 [1, 5] [µM] | Selectivity ([1]; Table 2) | IC50 [2, 6] [µM] | IC50 [1, 7] [µM] | Selectivity ([1]; Table 3) | IC50 [2, 8] [µM] | further results
1 | O=C1/C(=C/c2cc3ccccc3o2)Oc2c1ccc(O)c2CN1CCCCC1 [Compound 5, (Z)-2-(benzofuran-2-ylmethylene)-6-hydroxy-7-(piperidin-1-ylmethyl)benzofuran-3(2H)-one] | 3.01 ± 0.73 | 22.8 | 68.7 ± 3.4 | – | – | – | –
2 | COc1ccc2oc(/C=C3\Oc4c(ccc(O)c4CN4CCNCC4)C3=O)cc2c1 [Compound 10, (Z)-6-hydroxy-2-((5-methoxybenzofuran-2-yl)methylene)-7-(piperazin-1-ylmethyl)benzofuran-3(2H)-one] | 1.63 ± 0.43 | 22.6 | 36.8 ± 3.9 | – | – | – | –
3 | N#Cc1ccc(O)c(-c2nc(NCCc3c[nH]cn3)c3ccccc3n2)c1 [Compound 20, 3-(4-((2-(1H-imidazol-4-yl)ethyl)amino)quinazolin-2-yl)-4-hydroxybenzonitrile] | – | – | – | 0.00484 ± 0.00063 | >10331 | > 50 | biochemical potency against the d746-750/T790M/C797S mutant (in words) [1]: low-nanomolar; selectivity index / factor, triple mutant over the wild type ([1]; enzyme assays): higher than 10^4
4 | CCN(CC)CCCNc1nc(-c2cc(C#N)ccc2O)nc2ccccc12 [Compound 13, 3-(4-((3-(diethylamino)propyl)amino)quinazolin-2-yl)-4-hydroxybenzonitrile] | – | – | – | 0.0265 ± 0.0084 | 319 | 8.45 ± 1.89 | –
5 | COc1ccc2oc(/C=C3\Oc4c(ccc(O)c4CN4CCCC(C)C4)C3=O)cc2c1 (stereo not shown) [Compound 8, (Z)-6-hydroxy-2-((5-methoxybenzofuran-2-yl)methylene)-7-((3-methylpiperidin-1-yl)methyl)benzofuran-3(2H)-one] | 20.1 ± 7.2 | >4.98 | > 100 | – | – | – | –
6 | c1ccc(CNc2ncnc3oc(-c4ccccc4)c(-c4ccccc4)c23)cc1 [Compound 4] | – | – | – | – | – | – | IC50 [1, 9]: 0.802 ± 0.055 µM; Selectivity Index (IC50^WT/IC50^mutant) ([1]; Table 1): 0.00733; biochemical potency against the wild-type EGFR (in words) [2]: nanomolar level; IC50 [2, 10]: 0.00588 ± 0.00098 µM; higher inhibitory activity against the wild type than against the d746-750/T790M/C797S mutant ([2]; enzyme assays): 136 fold
7 | N#Cc1ccc(O)c(-c2nc(NCc3c[nH]cn3)c3ccccc3n2)c1 [Compound 18, 3-(4-(((1H-imidazol-4-yl)methyl)amino)quinazolin-2-yl)-4-hydroxybenzonitrile] | – | – | – | 0.00747 ± 0.00039 | >6693 | > 50 | IC50 [3]: > 5 µM; biochemical potency against the d746-750/T790M/C797S mutant (in words) [1]: low-nanomolar level; selectivity in the inhibition of EGFR^d746-750/T790M/C797S over the wild type ([1]; enzyme assays): more than 6690 fold; antiproliferative activity against the d746-750/T790M/C797S mutant cell (in words) [4]: submicromolar level; IC50 [4]: 0.78 ± 0.31 µM; Selectivity [4]: >6.41
8 | CCN(CC)CCCNc1nc(-c2ccccc2O)nc2ccccc12 [Compound 12, 2-(4-((3-(diethylamino)propyl)amino)quinazolin-2-yl)phenol] | – | – | – | 0.516 ± 0.206 | >96.9 | > 50 | –
9 | Cn1cnc(CNc2nc(-c3cc(C=O)ccc3O)nc3ccccc23)c1 [Compound 21, 4-hydroxy-3-(4-(((1-methyl-1H-imidazol-4-yl)methyl)amino)quinazolin-2-yl)benzaldehyde] | – | – | – | 0.00793 ± 0.00168 | 118 | 0.935 ± 0.173 | –
10 | CC1CCCN(Cc2c(O)ccc3c2O/C(=C\c2cc4ccccc4o2)C3=O)C1 (stereo not shown) [Compound 6, (Z)-2-(benzofuran-2-ylmethylene)-6-hydroxy-7-((3-methylpiperidin-1-yl)methyl)benzofuran-3(2H)-one] | 1.94 ± 0.35 | 33.9 | 65.7 ± 6 | – | – | – | –
11 | O=C1/C(=C/c2cc3cc(O)ccc3o2)Oc2c1ccc(O)c2CN1CCNCC1 [Compound 11, (Z)-6-hydroxy-2-((5-hydroxybenzofuran-2-yl)methylene)-7-(piperazin-1-ylmethyl)benzofuran-3(2H)-one] | 0.715 ± 0.242 | 1.45 | 1.04 ± 0.16 | – | – | – | –
12 | Oc1ccccc1-c1nc(NCc2cscn2)c2ccccc2n1 [Compound 14, 2-(4-((thiazol-4-ylmethyl)amino)quinazolin-2-yl)phenol] | – | – | – | 1.12 ± 0.21 | >44.6 | > 50 | –
13 | N#Cc1ccc(O)c(-c2nc(NCc3cc[nH]c3)c3ccccc3n2)c1 [Compound 16, 3-(4-(((1H-pyrrol-3-yl)methyl)amino)quinazolin-2-yl)-4-hydroxybenzonitrile] | – | – | – | – | >693 | > 50 | –
14 | N#Cc1ccc(O)c(-c2nc(NCc3cocn3)c3ccccc3n2)c1 [Compound 17, 4-hydroxy-3-(4-((oxazol-4-ylmethyl)amino)quinazolin-2-yl)benzonitrile] | – | – | – | 0.593 ± 0.076 | >84.3 | > 50 | –
15 | COc1ccccc1Nc1nc(N)nc(-c2oc3ccccc3c2C)n1 [Compound 3] | – | – | – | – | – | – | IC50 [1, 9]: 2.89 ± 0.91 µM; Selectivity Index (IC50^WT/IC50^mutant) ([1]; Table 1): 12.3; IC50 [2, 10]: 35.5 ± 3.5 µM
16 | CC1CCCCN1Cc1c(O)ccc2c1O/C(=C\c1cc3ccccc3o1)C2=O (stereo not shown) [Compound 1] | – | 34.5 | – | – | – | – | IC50 [1, 9]: 2.11 ± 0.56 µM; Selectivity Index (IC50^WT/IC50^mutant) ([1]; Table 1): 34.5; IC50 [2, 10]: 72.7 ± 4.8 µM
17 | COc1cc(N2CCC(N3CCN(C)CC3)CC2)ccc1Nc1ncc(Cl)c(Nc2ccccc2P(C)(C)=O)n1 [Brigatinib, reference compound] | – | – | – | – | – | – | IC50 [3]: 1.56 ± 0.45 µM; IC50 [4]: 0.067 ± 0.014 µM; Selectivity [4]: 23.3
18 | Oc1ccccc1-c1nc(NCCN2CCOCC2)c2ccccc2n1 [Compound 2] | – | – | – | – | 21.4 | – | IC50 [1, 9]: 1.73 ± 0.38 µM; Selectivity Index (IC50^WT/IC50^mutant) ([1]; Table 1): 21.4; IC50 [2, 10]: 37.1 ± 2.3 µM
19 | O=C1/C(=C/c2cc3ccccc3o2)Oc2c1ccc(O)c2CN1CCNCC1 [Compound 9, (Z)-2-(benzofuran-2-ylmethylene)-6-hydroxy-7-(piperazin-1-ylmethyl)benzofuran-3(2H)-one] | 1.1 ± 0.36 | – | 21.3 ± 6.3 | – | – | – | –
20 | CC1CCN(Cc2c(O)ccc3c2O/C(=C\c2cc4ccccc4o2)C3=O)CC1 [Compound 7, (Z)-2-(benzofuran-2-ylmethylene)-6-hydroxy-7-((4-methylpiperidin-1-yl)methyl)benzofuran-3(2H)-one] | 5.29 ± 1.8 | 14.8 | 78.7 ± 4.6 | – | – | – | –
21 | Cn1cnc(CNc2nc(-c3cc(C#N)ccc3O)nc3ccccc23)c1 [Compound 19, 4-hydroxy-3-(4-(((1-methyl-1H-imidazol-4-yl)methyl)amino)quinazolin-2-yl)benzonitrile] | – | – | – | 0.00338 ± 0.00102 | >14793 | > 50 | IC50 [3]: 2.47 ± 0.89 µM; biochemical potency against the d746-750/T790M/C797S mutant (in words) [1]: low-nanomolar; selectivity index / factor, triple mutant over the wild type ([1]; enzyme assays): higher than 10^4; antiproliferative activity against the d746-750/T790M/C797S mutant cell (in words) [4]: submicromolar level; IC50 [4]: 0.74 ± 0.22 µM; Selectivity [4]: 3.34
